According to patent publication US20110034385A1, “Compositions Useful for the Treatment of Diabetes and Other Chronic Disorder” (NATIONAL INSTITUTE OF IMMUNOLOGY, priority 2008, published 2011):

Experiments:
[1] = tested on: MCF 7 cells; assay: MTT cell proliferation assay; type: cell-based; details: 3 days after treatment
Experimental: Cells were plated in 24-well plates with 10,000 cells/well in regular DMEM media containing 10% FBS. All treatments were done in triplicates. Growth was measured 3 days after treatment. Growth was assayed by the MTT assay. A total of 50 μl of 5 mg/ml MTT solution in PBS was added to each well. After incubation for 4 h at 37° C., formazan crystals were lysed with 500 μl of solubilization solution (20% SDS, 50% DMSO). Absorbance was measured with a plate reader at 570 nm using a 670-nm differential filter.

[2] = tested on: ovariectomized (OVX) rats; details: rat, in vivo
Experimental: 44 female Sprague-Dawley rats (Charles River Laboratory, Wilmington, Mass.), approximately 90 days of age with an average body weight of 230 g were grouped into four groups at the beginning of the study. All rats were anesthetized with an intraperitoneal injection of ketamine hydrochloride and xylazine at doses of 50 and 10 mg/kg body weight (BW), respectively. Bilateral ovariectomies were performed in three groups from a dorsal approach. All rats were housed individually at 25° C. with a 12 h light/12 h dark cycle. The food consumption of ovariectomized (OVX) rats was restricted to that of the control rats to minimize increase in the body weight associated with ovariectomy. All rats were treated for 8 weeks with vehicle or Human/salmon CT (Sigma) either intermittently by subcutaneous injection or continuously by Alzet osmotic minipumps (Model 2ML4; Alza Corp., Palo Alto, Calif.) containing 200 μl of either CT (4 μg/kg) or SCA (Supramolecular calcitonin assembly) (2 mg/ml) in 2% mannitol, designed to deliver the solutions at a constant rate of 2.5 μl/h for 28 days. The intermittent treatments started a day after surgery. The minipumps for continuous CT or Calcitonin SCA or vehicle treatments were implanted at the time of surgery (day 0) and replaced after 3 weeks in case of continuous CT and vehicle treatment. […] For subcutaneous injections of CT, the hormone was dissolved in a vehicle of 2% mannitol.
Half of the OVX rats from this group were injected subcutaneously on alternate days with 2% mannitol as a vehicle. The remaining OVX rats in this group were implanted subcutaneously with Alzet osmotic minipumps for continuous infusion of vehicle.
Each OVX rat of one group was injected subcutaneously on alternate days with salmon CT at a dose of 16 U/kg BW (4 μg/kg b wt), and the other was implanted subcutaneously with an Alzet osmotic minipump for continuous infusion of human CT. The daily dose delivered to each rat by the minipump was 8 U/kg BW (2 μg/kg BW), which was equivalent to the dose given to the preceding group through subcutaneous injections on alternate days (16 U/kg).
Serum samples were stored at −80° C. until analyzed for their CT concentration by immunoassay methods with a commercially available kit (Bio-Merica). […] Calcitonin in serum was measured by an immunoassay kit.
Data are expressed as the mean±standard deviation (SD) for each group. Statistical differences were evaluated by analysis of variance. P values<0.05 were considered to be significant.

[3] = tested on: rats with kaolin/carrageenan (KC) arthritis; assay: Hot plate test in kaolin/carrageenan arthritis; type: in vivo, rat
Experimental: Male wistar rats, weighing 180-220 g were selected and fed ad libitum. After four days of acclimatization, the rats were divided into five groups. Group I—control, Group II—Ibuprofen (10 mg/kg b.wt.), Group III—Ibuprofen (50 mg/kg b.wt.), Group IV—Ibuprofen coupled to transthyretin (TTR) or GNNQQNY injected intraperitoneally and Group V—carrageenin control. Groups II-V was anesthetized with halothane and KC arthritis was induced by an intra-articular injection of a mixture of 3% kaolin and 3% carrageenan (0.1 ml in sterile saline) into the synovial cavity of right knee joint. The joint was then manipulated by rapid flexion and extension movements for 1 min. Half an hour after injection of kaolin/carrageenan, the animals were treated as indicated above, with group II and II receiving daily injections of Ibuprofen orally. In the hot plate test method, rats from each group were placed on an analgesiometer, at a temperature of 55° C., and the latency in licking their paw was determined with a stop watch, one hour after treatment on day one (FIG. 32a), and thereafter everyday for four days (FIG. 32b). A 90-s cut-off time was imposed to prevent tissue damage.

[4] = tested on: STZ-induced diabetic rats; assay: Clinical parameters for the evaluation of toxicity of SIA II; type: in vivo, rat
[5] = Serum insulin quantification by ELISA; details: in 30 min
Experimental: Serum was isolated from the blood samples collected and stored at −20° C. till further analysis.

[6] = tested on: STZ-induced diabetic rats; assay: Clinical parameters for the evaluation of toxicity of SIA II; type: in vivo, rat; details: end of three month study
Description: Serum isolated from blood samples collected at the end of the three month study and subjected to various tests indicated in the Table. Results are mean±s.d. of three different experiments having n=4 animals in each group.

[7] = tested on: STZ-induced diabetic rats; assay: Blood glucose control in streptozotocin-induced diabetic rats; type: in vivo, rat
Experimental: Nine weeks old Male Wistar rats (Rattus norvegicus albinus, Rodentia mammalia) weighing 210±10 g were used. Rats were housed in commercially available polypropylene cages and maintained under controlled temperature conditions on a 12 h light-dark cycle and allowed to access food and water ad libitum.
Male Wistar Rats weighing 250-300 g were divided into four groups and blood glucose estimation was done using Roche Accu Check glucose strips. Rats were kept on fasting for 48 hours. 50 mg/kg b.wt of Streptozotocin prepared freshly in citrate buffer (pH 4.5) was administered intraperitoneally to 10-20 rats. Food was provided immediately and blood glucose levels were checked after three days. The animals were grouped according to their blood glucose level (group I: 250-350 mg/dl, group II: 350-450 mg/dl and group III: >450 mg/dL).
A group of 5 normal rats injected 100 μl of PBS, served as the non-diabetic control. Body weight and blood glucose levels, both pre-prandial after 8-10 hr fasting and post-prandial were checked initially daily and then with decreasing frequency.

[8] = tested on: STZ treated rats; assay: Intraperitoneal glucose tolerance test (IPGTT); type: in vivo, rat
Experimental: The STZ treated (n=12) and normal rats (n=4) were kept on fasting for 12 hrs. Blood glucose levels were monitored as described above. For glucose tolerance test was done. […] Blood glucose levels were monitored at 0, 30, 90, 150, 270 and 330 min after treatment. Serum was isolated for various time points and a graph was plotted between blood glucose level and time. FIG. 12 provides blood glucose profile of Intraperitoneal Glucose Tolerance Test (IPGTT).

[9] = tested on: fat-fed/streptozotocin-diabetic rats; assay: Type II diabetes model, fat-fed/streptozotocin-diabetic rats; type: in vivo, rat
Experimental: Male Wistar rats, 7 weeks of age, and weighing approximately 200 g, were used for all studies. […] After 2 weeks on either diet, animals (with the exception of non-injected controls) after an overnight fast were injected with STZ (50 mg/kg) into the tail vein via a temporary indwelling 24-gauge catheter. Animals had free access to food and water after the STZ injection, and both STZ-injected and non-injected animals were continued on their original diets (chow or fat) for the duration of the study.

[10] = tested on: Male wistar rats; assay: Hyperglycemic clamp after treatment with SIA II; type: in vivo, rat; details: one week, one month and three month
Experimental: Male wistar rats were anesthetized (Isoflurane 2%) and a carotid and jugular catheter installed to allow blood withdrawal and glucose injections (20% glucose solution) to clamp blood glucose level at 600 mg/dL. Following a 12 hours fasting period, glucose was infused in all groups to make them hyperglycemic. This was followed by blood withdrawal at indicated time intervals, for blood glucose measurements and the rate of glucose infusion to retain them hyperglycemic were calculated. This procedure was repeated after one and three months of SIA II administration (FIG. 16 a-c).

[11] = tested on: insulin signaling cascade (PI3K, Akt, GSK3β, ERK1/2) in rat adipocytes; assay: Western blot of insulin signaling cascade in cultured adipocytes; type: cell-based; details: compared to control
Experimental: Rat adipocytes were isolated and cultured according to the method described by Björntorp et al. (Björntorp, P., Karlsson, M., Pettersson, P. & Sypniewska, G. Differentiation and function of rat adipocyte precursor cells in primary culture. J. Lipid Res. 21, 714-723 (1987)). Male Wistar rats fed freely were sacrificed and epididymal fat tissue was dissected and collected in reagent A (HBSS, 100 U/ml penicillin, 100 μg/ml streptomycin and […] gentamycin). The tissue was washed properly in HBSS. Following this the tissue was cut and minced finely and transferred to a falcon, centrifuged at 200 g for 2 min. The layer of transparent oil was removed and the adipocyte cell layer (thick and dense) was added to three times the volume of reagent B (reagent A containing 0.1% BSA and 1 mg/ml Collagenase) in a flask. The flask was incubated at 37° C. for 60 min with continuous slow shaking. The reaction was stopped by addition of DMEM complete media (with HEPES 15 mM, glc, 0.1% BSA, 50 nM adenosine and 1% fetal bovine serum) three times the volume and incubated at room temperature for 5 min. […]
After incubation, the cells were collected in a falcon tube and centrifuged at 200 g for 10 min. […] Adipocytes treated with (a) PBS, insulin, SIA-II, insulin released from SIA-II, (b) serum as indicated, and analysed for insulin signaling.

[12] = insulin: single dose of 4 IU/kg daily, SIA: single injection 200 μg

## IGF 1: Insulin like growth factor I, positive control for proliferation of MCF 7 cells
[1]
  proliferation of MCF 7 cells: mitogenic

## CC(C)C[C@H](NC(=O)[C@H](CCCCN)NC(=O)CNC(=O)[C@H](CC(C)C)NC(=O)[C@@H](NC(=O)[C@@H]1CSSC[C@H](N)C(=O)N[C@@H](CO)C(=O)N[C@@H](CC(N)=O)C(=O)N[C@@H](CC(C)C)C(=O)N[C@@H](CO)C(=O)N[C@@H]([C@@H](C)O)C(=O)N1)C(C)C)C(=O)N[C@@H](CO)C(=O)N[C@@H](CCC(N)=O)C(=O)N[C@@H](CCC(=O)O)C(=O)N[C@@H](CC(C)C)C(=O)N[C@@H](Cc1c[nH]cn1)C(=O)N[C@@H](CCCCN)C(=O)N[C@@H](CC(C)C)C(=O)N[C@@H](CCC(N)=O)C(=O)N[C@H](C(=O)N[C@@H](Cc1ccc(O)cc1)C(=O)N1CCC[C@H]1C(=O)N[C@@H](CCCNC(=N)N)C(=O)N[C@H](C(=O)N[C@@H](CC(N)=O)C(=O)N[C@H](C(=O)NCC(=O)N[C@@H](CO)C(=O)NCC(=O)N[C@H](C(=O)N1CCC[C@H]1C(N)=O)[C@@H](C)O)[C@@H](C)O)[C@@H](C)O)[C@@H](C)O [SCA]
[2]
  Calcitonin (serum): 19.1 ± 4.2
  antibody against salmon calcitonin: negligible
  serum levels of calcitonin: 0.019 ng/mL
  time depot keeps on releasing calcitonin: 6-8 weeks
  time serum calcitonin maintained at a higher level: up to 60 days

## CC(C)Cc1ccc(C(C)C(=O)O)cc1 (stereo not drawn) [Ibuprofen]
[3]; 10 mg/kg b.wt orally
  latency in licking paw (heat endured): up to 12 sec
[3]; 50 mg/kg b.wt orally
  latency in licking paw (heat endured): ≤ 17 s

## Insulin: free, non-supramolecularly organized insulin; bovine insulin 4 U/kg intraperitoneally
[4]; Single daily Insulin Injection, end of three month study
  Adipose Tissue: Decreased
[4]; diabetic rats
  cataract formation: Development of cataract
[5]
  serum bovine insulin in IPGTT: ~0.9 ng/mL
[6]; Single daily Insulin Injection
  Alkaline Phosphatase: 777.8 ± 89.4 U/L
  Bilirubin (Direct): 0.36 ± 0.08 mg/dL
  Bilirubin (Total): 0.40 ± 0.08 mg/dL
  Chloride: 165 ± 23 mEq/L
  Phosphorous: 6.5 ± 1.3 mEq/L
  SGOT: 355 ± 83 U/L
  SGPT: 86 ± 36 U/L
  Serum A/G ratio: 0.595
  Serum Albumin: 2.5 ± 0.21 g/dL
  Serum Creatinine: 1.01 ± 0.30 mg/dL
  Serum Globulin: 4.2 ± 0.18 g/dL
  Serum total proteins: 6.70 ± 0.21 g/dL
  Sodium: 200 ± 26 mEq/L
  Urea: 58.3 ± 9.2 mg/dL
  Uric Acid: 3.0 ± 0.81
[6]; Twice daily Insulin Injection
  Adipose Tissue: Decreased
  Alkaline Phosphatase: 489 ± 65 U/L
  Bilirubin (Direct): 0.25 ± 0.06 mg/dL
  Bilirubin (Total): 0.35 ± 0.1 mg/dL
  Chloride: 119 ± 26 mEq/L
  Phosphorous: 6.2 ± 0.95 mEq/L
  SGOT: 300 ± 56 U/L
  SGPT: 85 ± 15 U/L
  Serum A/G ratio: 0.955
  Serum Albumin: 3.2 ± 0.19 g/dL
  Serum Creatinine: 0.88 ± 0.21 mg/dL
  Serum Globulin: 3.35 ± 0.15 g/dL
  Serum total proteins: 5.55 ± 0.25 g/dL
  Sodium: 198 ± 45.5 mEq/L
  Urea: 60.1 ± 12.36 mg/dL
  Uric Acid: 3.1 ± 0.56
[7]; insulin intraperitoneally everyday
  blood glucose levels: 300 ± 100 mg/dL
[7]; [12]
  fasting blood glucose: 300 to 400 mg/dL
  non-fasting blood glucose: 350 to 450 mg/dL
[7]; standard insulin injection
  duration of action: 6 to 10 h
[8]; after glucose infusion 3 g/kg IP
  time for elevated blood glucose to return to pre challenged levels: ≤ 1.5 h
[8]; severe hyperglycemia
  onset of effect in IPGTT: ≤ 30 min
[1]
  proliferation of MCF 7 cells: does not cause proliferation of cells
[9]; 1 week
  B W: 261
  BGL: 420 mg/dL
  FFA: 1.9 ± 0.08 mmol/L
  Rat Insulin: 37.09 ± 4.7 μU/ml
  TG: 0.77 ± 0.05 mmol/L
[9]; 2 week
  B W: 263
  BGL: 401 mg/dL
  FFA: 2.1 ± 0.08 mmol/L
  Rat Insulin: 37.09 ± 4.7 μU/ml
  TG: 0.75 ± 0.05 mmol/L
[9]; 3 week
  B W: 269
  BGL: 390 mg/dL
  FFA: 1.8 ± 0.08 mmol/L
  Rat Insulin: 37.09 ± 4.7 μU/ml
  TG: 0.73 ± 0.05 mmol/L
[9]; 4 week
  BGL: 396 mg/dL
  FFA: 2.1 ± 0.08 mmol/L
  Rat Insulin: 37.09 ± 4.7 μU/ml
  TG: 0.76 ± 0.05 mmol/L
[9]; serum
  increase of TAGs and FFA levels in serum: up to 1.5 fold
[10]
  rate of glucose infused for maintaining hyperglycemic state: decreases over time
[11]
  activation of ERK 1/2: significant activation
  phosphorylation of GSK3β: increased several fold
